According to US4209439A, “Stabilization of vinyl resins” (priority 1977, dated 1980):
Where “and” joins values, the source holds several entries; their conditions need not be identical. Equal values may be shown once.

Experiments:
Type in all cases: physicochemical
[1] = migration of stabiliser from PVC bottles into water at 50° C.; conditions: water 50° C.
Experimental: 2.2--Study of the migration
The migration or the extractability of the stabiliser from the PVC compound under the effect of various liquids (and particularly water) stored in a plastic container is of essential importance for the use of these stabilisers in the field of food packagings.
(§1) The technique as regards extraction was the following: using the formula which is given below, a batch of bottles (volume 1 liter, diameter 70 mm, height.perspectiveto.230 mm) was prepared, the said bottles being filled with a liquid simulating the foods. […] The migration of the stabiliser was judged by dosage of the pyridine present in the extractum, using the dosage method which is later described. This pyridine obviously represents the oxidised form of the extracted 1,4-dihydropyridine.
The investigation was particularly developed for water at 50° C. over a period of 2 months, because it represents the important problem regarding the packaging of mineral waters.
Formula for the manufacture of bottles
The S L 2016 is a solution of zinc 2-ethyl hexanoate in a mixture of aromatic hydrocarbons boiling from 158° to 184° C.
(§2) The stabilisers are measured out in the form of their oxidation product (pyridine).
(§3) The oxidation is made quantitative by adding a few drops of iodine to the solution. The latter is then extracted with chloroform and the chloroform is evaporated to a small residual volume. The solution obtained is then subjected to thin-film chromatography, by comparison with solutions of known concentration of the desired pyridines.
(§4) The sensitivity threshold of this technique is 5 μg/liter.

[2] = sublimation at 160° C. for 6 hours under nitrogen; conditions: for % of sublimed product: 160° C., 6 hours, nitrogen; for sublimation: of the quantity of product being used
Experimental: A test sample of about 130 mg of the product to be investigated is introduced into a 100 cc beaker. The latter is placed in a 250 cc reactor. The temperature is kept at 160° C. by means of a thermostatically controlled oil bath for 6 hours, the atmosphere of the reactor being inert (nitrogen) in order to avoid the oxidation of the 1,4-dihydropyridine into pyridine, which is more sublimable.
For each dihydropyridine derivative which is investigated, the result is expressed as a percentage of sublimed product relatively to the quantity being used.

[3] = migration of stabiliser from PVC into solutions or solvents simulating foods at 50° C.
Experimental: as §1, §2, §3, §4
For justifying the possibility of using the dihydropyridines (I) having a radical R comprising from 9 to 22 carbon atoms in applications concerned with food packaging, other than those applications relating to mineral waters, the extractability of the dihydropyridines by several solutions or solvents having the following composition, by weight, was investigated:
(a) water-sodium chloride: 97-3
(b) water-saccharose: 90-10
(c) water-sodium chloride-acetic acid: 98.5-0.5-1
(d) water-citric acid (solution at pH=5): 98-2
(e) water-acetic acid: 97-3
(f) water-acetic acid: 90-10
(h) water-acetic acid: 50-50

[4] = polarographic study of the oxidation potential (Example 30); conditions: acetonitrile, lithium perchlorate; calomel electrode; in V (unit assumed)
From the text: 261. Polarographic study of the oxidation potential […]
reference electrode: a calomel electrode which contains, as junction liquid, a saturated solution of anhydrous lithium perchlorate working electrode: rotating electrode of vitreous carbon (2500 r.p.m.) counter-electrode: platinum. acetonitrile, having a water content smaller than 0.1% and not presenting any polarographic waves between -2.5 volts and +2.5 volts.
0.1 M solution of lithium perchlorate in acetonitrile, treated and preserved on a molecular screen of 4 A. […]
exploration amplitude: 0 to 2 V exploration speed: 10 mV/sec.

[5] = polarographic oxidation potential (Example 31); conditions: 0.5 m.mole/liter; methanol/acetic acid; 35° C.
Experimental: platinum counter-electrode and calomel electrode with filling by a saturated aqueous solution of lithium chloride.
The measurements were carried out in the following solvent:
90 parts of an 0.1 M solution of lithium perchlorate in methanol, 10 parts of a 0.1 M solution of perchloric acid in acetic acid. square voltage superimposed with constant pulses of +10 millivolts, initial potential: 500 millivolts, scanning voltage: 1000 millivolts in the anode direction, oxidation at the vitreous carbon electrode (speed of rotation: 2000 r.p.m.)

% of sublimed product [2] [%]	Migration ([3]; H2O/NaCl (97:3), 0.3, 1 month) [µg/L]	Migration ([3]; H2O/NaCl (97:3), 0.3, 2 months) [µg/L]	Migration ([1]; 0.15 pct, 1 month) [µg/L]	Migration ([1]; 0.15 pct, 2 months) [µg/L]	Migration ([1]; 0.15 pct, 10 days) [µg/L]	Migration ([1]; 0.15 pct, 20 days) [µg/L]	Migration ([1]; 0.30 pct, 1 month) [µg/L]	Migration ([1]; 0.30 pct, 2 months) [µg/L]	Migration ([1]; 0.30 pct, 10 days) [µg/L]	Migration ([1]; 0.30 pct, 20 days) [µg/L]	SMILES	also measured
62	90	140									c1ccc(-c2cc3ccccc3[nH]2)cc1 [2-phenyl indole, reference compound]	Migration ([1]; 0.30 pct, 1 month, listed as Control): 100 µg/L and 110 µg/L and 120 µg/L; Migration ([1]; 0.30 pct, 2 months, listed as Control): 100 µg/L and 110 µg/L and 130 µg/L; Migration ([1]; 0.30 pct, 10 days, listed as Control): 75 µg/L and 70 µg/L and 80 µg/L; Migration ([1]; 0.30 pct, 20 days, listed as Control): 90 µg/L and 100 µg/L; sublimation [2]: 62%
											COc1ccc(O)cc1 [4-Methoxy phenol]	Oxidation potential [4]: 0.89 ± 0.01
											Cc1cc(C(C)(C)C)c(O)c(C(C)(C)C)c1 [BHT, Di-tert.-2,6-butyl-4-methyl phenol, reference compound]	Oxidation potential [5]: 1163 millivolts; Oxidation potential [4]: 1.11 ± 0.02
											Oc1ccc(O)cc1 [Hydroquinone]	Oxidation potential [4]: 0.83 ± 0.01
82.9	120	150	100	100	20	50	150	150	90	120	CCOC(=O)C1=C(C)NC(C)=C(C(=O)OCC)C1 [L.28501, 2,6-Dimethyl-3,5-dicarboethoxy-1,4-dihydropyridine]	Oxidation potential [4]: 0.73 ± 0.01
7.2											CCCCCCCCOC(=O)C1=C(C)NC(C)=C(C(=O)OCCCCCCCC)C1 [L.28502]	sublimation [2]: 7%
98.1											CC1=C(C(=O)OC(C)C)CC(C(=O)OC(C)C)=C(C)N1 [L.28506]	
1.7	< 5	< 5	< 5	< 5	< 5	< 5	< 5	< 5	< 5	< 5	CCCCCCCCCCCCOC(=O)C1=C(C)NC(C)=C(C(=O)OCCCCCCCCCCCC)C1 [L.28507, 2,6-Dimethyl-3,5-dicarbododecyloxy-1,4-dihydropyridine]	Oxidation potential [5]: 783 millivolts; Migration ([3]; Heptane, 0.3 pcr, after 36 h): 120 µg/L; Migration ([3]; Heptane, 0.3 pcr, after 84 h): 150 µg/L; Migration ([3]; Water/C2H5OH (50:50), 0.3, 1 month): 50 µg/L; Migration ([3]; Water/C2H5OH (85:15), 0.3, 1 month): < 5 µg/L; Migration ([3]; Water/C2H5OH (85:15), 0.3, 2 months): < 5 µg/L; Migration ([3]; Water/CH3COOH (50:50), 0.3, 1 month): 25 µg/L; Migration ([3]; Water/CH3COOH (90:10), 0.3, 1 month): < 5 µg/L; Migration ([3]; Water/CH3COOH (90:10), 0.3, 2 months): < 5 µg/L; Migration ([3]; Water/CH3COOH (97:3), 0.3, 1 month): < 5 µg/L; Migration ([3]; Water/CH3COOH (97:3), 0.3, 2 months): < 5 µg/L; Migration ([3]; Water/NaCl/CH3COOH (98,5:0,5:1), 0.3, 1 month): < 5 µg/L; Migration ([3]; Water/NaCl/CH3COOH (98,5:0,5:1), 0.3, 2 months): < 5 µg/L; Migration ([3]; Water/Sacchrose (90:10), 0.3, 1 month): < 5 µg/L; Migration ([3]; Water/Sacchrose (90:10), 0.3, 2 months): < 5 µg/L; Migration ([3]; Water/citric acid (98:2), pH 5, 0.3, 1 month): < 5 µg/L; Migration ([3]; Water/citric acid (98:2), pH 5, 0.3, 2 months): < 5 µg/L
79.1											CCCOC(=O)C1=C(C)NC(C)=C(C(=O)OCCC)C1 [L.28509]	
0.1	< 5	< 5	< 5	< 5	< 5	< 5	< 5	< 5	< 5	< 5	CCCCCCCCCCCCCCOC(=O)C1=C(C)NC(C)=C(C(=O)OCCCCCCCCCCCCCC)C1 [L.28590, 2,6-Dimethyl-3,5-dicarbotetradecyloxy-1,4-dihydropyridine]	Oxidation potential [5]: 732 millivolts
1.7											CCCCCCCCCCOC(=O)C1=C(C)NC(C)=C(C(=O)OCCCCCCCCCC)C1 [L.28591]	
1.2	< 5	< 5	< 5	< 5	< 5	< 5	< 5	< 5	< 5	< 5	CCCCCCCCCCCCCCCCCCOC(=O)C1=C(C)NC(C)=C(C(=O)OCCCCCCCCCCCCCCCCCC)C1 [L.28599, 2,6-Dimethyl-3,5-dicarbooctadecyloxy-1,4-dihydropyridine]	
0.4											CCCCCCCCCCCCCCCCCCCCCCOC(=O)C1=C(C)NC(C)=C(C(=O)OCCCCCCCCCCCCCCCCCCCCCC)C1 [L.28601]	
											CCCCCCCC/C=C\CCCCCCCCOC(=O)C1=C(C)NC(C)=C(C(=O)OCCCCCCCC/C=C\CCCCCCCC)C1 [L.28602]	Oxidation potential [5]: 808 millivolts

SMILES	% of sublimed product [2] [%]	Migration ([3]; H2O/NaCl (97:3), 0.3, 1 month) [µg/L]	Migration ([3]; H2O/NaCl (97:3), 0.3, 2 months) [µg/L]	Migration ([1]; 0.15 pct, 1 month) [µg/L]	Migration ([1]; 0.15 pct, 2 months) [µg/L]	Migration ([1]; 0.15 pct, 10 days) [µg/L]	Migration ([1]; 0.15 pct, 20 days) [µg/L]	Migration ([1]; 0.30 pct, 1 month) [µg/L]	Migration ([1]; 0.30 pct, 2 months) [µg/L]	Migration ([1]; 0.30 pct, 10 days) [µg/L]	Migration ([1]; 0.30 pct, 20 days) [µg/L]	also measured
CCCCOC(=O)C1=C(C)NC(C)=C(C(=O)OCCCC)C1 [L.28552, 2,6-Dimethyl-3,5-dicarbobutoxy-1,4-dihydropyridine]	39.2	80	100	90	100	15	40	130	130	80	120	
